Patent publication US7820646B2, “Cyclized derivatives as Eg-5 inhibitors” (Novartis Vaccines and Diagnostics, Inc., priority 2007, dated 2010)
pIC50: −log10 of the molar value.

Experiments:
[1] = system: KB8.5 (KB85 - p-glycoprotein associated multi-drug resistant cell line); assay: Inhibition of cellular proliferation in tumor cell lines (CellTiter Glo), KB8.5; format: cell-based; settings: KB8.5, 72 hours of continuous compound exposure; read-out: Cell Base Activity GI50 KB8.5
Method: (§1) Cells are plated in 96-well plates at densities of about 500 cells per well of a 96-well plate and are allowed to grow for 24 hours. The cells are then treated with various concentrations of compounds for 72 hours. Then, 100 μl of CellTiter Glo is added. CellTiter Glo is a tetrazolium-based assay using the reagent 3-(4,5-dimethylthiazol-2-yl) 5-(3-carboxymethoxyphenyl)-2-(4-sulfophenyl)-2H-tetrazolium (MTS) (U.S. Pat. No. 5,185,450) (see Promega product catalog #G3580, CellTiter 96 Aqueous One Solution Cell Proliferation Assay). The cells are then incubated in the dark for 30 minutes. The amount of luminescence is determined for each well using a Walloc Trilux plate reader, which correlates with the number of cells per well. The number of viable cells in the wells that receive only DMSO (0.5%) serve as an indication of 0% inhibition, while wells without cells serve as 100% inhibition of cell growth. The compound concentration that results in a 50% growth inhibition (GI50) is determined graphically from sigmoidal dose-response curves of log-transformed dose values versus cell counts (percent of control) at 72 hours of continuous compound exposure.
(§2) The cell lines used are listed below.
(§3) The cell proliferation assay is performed as described above.

[2] = target: T1, motor domain of human KSP (Eg 5, KNSL1) (Homo sapiens, UniProt P52732); assay: Assay for determining KSP activity (microtubule-stimulated ATPase, Biomol Green); settings: KSP motor domain 45 nM, microtubules 35 μg/mL, 1 hour at RT; read-out: Biochemical Activity IC50
T1 construct: KSP motor protein (i.e., the KSP motor domain); made in house
T1 sequence (P52732 18-359 limits assumed): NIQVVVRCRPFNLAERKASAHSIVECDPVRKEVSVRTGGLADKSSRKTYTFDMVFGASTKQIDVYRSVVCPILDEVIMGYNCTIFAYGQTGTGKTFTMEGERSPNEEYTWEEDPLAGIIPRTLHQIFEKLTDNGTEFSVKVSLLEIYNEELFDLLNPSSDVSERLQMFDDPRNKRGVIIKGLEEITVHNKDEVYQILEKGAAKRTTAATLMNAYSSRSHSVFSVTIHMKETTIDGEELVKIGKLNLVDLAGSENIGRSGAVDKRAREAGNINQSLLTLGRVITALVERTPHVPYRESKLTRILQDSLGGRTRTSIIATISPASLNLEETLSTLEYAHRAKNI
From the text: This example provides a representative in vitro assay for determining KSP activity in vitro. Purified microtubules obtained from bovine brain were purchased from Cytoskeleton Inc. (Denver, Colo., USA). The motor domain of human KSP (Eg 5, KNSL1) was cloned, expressed, and purified to greater than 95% homogeneity. Biomol Green was purchased from Affinity Research Products Ltd. (Matford Court, Exeter, Devon, United Kingdom). Microtubules and KSP motor protein (i.e., the KSP motor domain) were diluted in assay buffer (20 mM Tris-HCl (pH 7.5), 1 mM MgCl2, 10 mM DTT and 0.25 mg/mL BSA) to a final concentration of 35 μg/mL microtubules and 45 nM KSP. The microtubule/KSP mixture was then pre-incubated at 37° C. for 10 min to promote the binding of KSP to microtubules.
To each well of the testing plate (384-well plate) containing 1.25 μL of inhibitor or test compound in DMSO (or DMSO only in the case of controls) were added 25 μL of ATP solution (ATP diluted to a concentration of 300 μM in assay buffer) and 25 μL of the above-described microtubule/KSP solution. The plates were incubated at RT for 1 hour. Following incubation, 65 μL of Biomol Green (a malachite green-based dye that detects the release of inorganic phosphate) was added to each well. The plates were incubated for an additional 5-10 minutes then the absorbance at 630 nm was determined using a Victor II plate reader. The amount of absorbance at 630 nm corresponded to the amount of KSP activity in the samples. The IC50 of each inhibitor or test compound was then determined based on the decrease in absorbance at 630 nm at each concentration, via nonlinear regression using either XLFit for Excel or Prism data analysis software by GraphPad Software Inc.

parental cell line = assay: Inhibition of cellular proliferation in tumor cell lines (CellTiter Glo), KB3.1; format: cell-based; settings: Homo sapiens, KB 3-1; KB3.1, 72 hours of continuous compound exposure; read-out: Cell Base Activity GI50 KB3.1
Method: as §1, §2, §3

HCT-116 colon carcinoma = assay: Inhibition of cellular proliferation in tumor cell lines (CellTiter Glo), HCT-116; format: cell-based; settings: Homo sapiens; HCT-116, 72 hours of continuous compound exposure; read-out: Cell Base Activity GI50 HCT-116
Method: as §1, §2, §3

HCT-15 colon carcinoma = assay: Inhibition of cellular proliferation in tumor cell lines (CellTiter Glo), HCT-15; format: cell-based; settings: Homo sapiens; HCT-15, 72 hours of continuous compound exposure; read-out: Cell Base Activity GI50 HCT-15
Method: as §1, §2, §3

SMILES | GI50 [1] [µM] | pIC50 [2] | GI50 (parental cell line) [µM] | GI50 (HCT-116 colon carcinoma) [µM] | GI50 (HCT-15 colon carcinoma) [µM]
CC(C)(C)[C@H](c1nc(-c2ccccc2)cn1Cc1ccccc1)N1C[C@@H](CN)COC1=O [Compound 5, (5R)-5-(aminomethyl)-3-[(1R)-1-(1-benzyl-4-phenyl-1H-imidazol-2-yl)-2,2-dimethylpropyl]-1,3-oxazinan-2-one] | 0.1 to 1 | ≥ 7.00 | 0.1 to 1 |  | 
CC(C)[C@H](c1nc(-c2cccc(Cl)c2)cn1Cc1ccccc1)N1C[C@H](CN)OCC1=O [Compound 9, (6S)-6-(aminomethyl)-4-{(1R)-1-[1-benzyl-4-(3-chlorophenyl)-1H-imidazol-2-yl]-2-methylpropyl}morpholin-3-one] | > 1 | < 6.00 | 0.1 to 1 | 0.1 to 1 | 0.1 to 1
CC(C)(C)[C@H](c1nc(-c2ccccc2)cn1Cc1ccccc1)N1C[C@H](F)CNCC1=O [Compound 31, (6R)-1-[(1R)-1-(1-benzyl-4-phenyl-1H-imidazol-2-yl)-2,2-dimethylpropyl]-6-fluoro-1,4-diazepan-2-one] |  | 6.00 to 7.00 |  |  | 
CC(C)(C)[C@H](c1nc(-c2ccccc2)cn1Cc1ccccc1)N1C[C@@H](CCN)OCC1=O [Compound 10, (6R)-6-(2-aminoethyl)-4-[(1R)-1-(1-benzyl-4-phenyl-1H-imidazol-2-yl)-2,2-dimethylpropyl]morpholin-3-one] |  | 6.00 to 7.00 |  |  | 
CC(C)[C@H](c1nc(-c2cccc(Cl)c2)cn1Cc1ccccc1)N1C[C@@H](CN)OCC1=O [Compound 8, (6R)-6-(aminomethyl)-4-{(1R)-1-[1-benzyl-4-(3-chlorophenyl)-1H-imidazol-2-yl]-2-methylpropyl}morpholin-3-one] |  | < 6.00 |  |  | 
CC(C)(C)[C@H](c1nc(-c2ccccc2)cn1Cc1ccccc1)N1C[C@@H](CN)OCCC1=O [Compound 23, (2R)-2-(aminomethyl)-4-[(1R)-1-(1-benzyl-4-phenyl-1H-imidazol-2-yl)-2,2-dimethylpropyl]-1,4-oxazepan-5-one] | 0.1 to 1 | 6.00 to 7.00 | > 1 | 0.1 to 1 | > 1
CC(C)(C)[C@H](c1nc(-c2ccccc2)cn1Cc1ccccc1)N1CC(CCN)OC1=O (stereo in doubt) [Compound 1, (5R)-5-(2-aminoethyl)-3-[(1R)-1-(1-benzyl-4-phenyl-1H-imidazol-2-yl)-2,2-dimethylpropyl]-1,3-oxazolidin-2-one] | > 1 | 6.00 to 7.00 | 0.1 to 1 | 0.1 to 1 | > 1
CC(C)(C)[C@H](c1nc(-c2ccccc2)cn1Cc1ccccc1)N1C[C@H](CCN)OCC1=O [Compound 11, (6S)-6-(2-aminoethyl)-4-[(1R)-1-(1-benzyl-4-phenyl-1H-imidazol-2-yl)-2,2-dimethylpropyl]morpholin-3-one] |  | 6.00 to 7.00 |  |  | 
CC(C)(C)[C@H](c1nc(-c2ccccc2)cn1Cc1ccccc1)N1C[C@H](CN)COC1=O [Compound 4, (5S)-5-(aminomethyl)-3-[(1R)-1-(1-benzyl-4-phenyl-1H-imidazol-2-yl)-2,2-dimethylpropyl]-1,3-oxazinan-2-one] | > 1 | 6.00 to 7.00 | > 1 |  | 
CC(C)[C@H](c1nc(-c2cccc(Cl)c2)cn1Cc1ccccc1)N1CC(CN)OC1=O (stereo partly drawn) [Compound 3, 5-(aminomethyl)-3-{(1R)-1-[1-benzyl-4-(3-chlorophenyl)-1H-imidazol-2-yl]-2-methylpropyl}-1,3-oxazolidin-2-one] | > 1 | 6.00 to 7.00 | > 1 | > 1 | > 1
CC(C)(C)[C@H](c1nc(-c2ccccc2)cn1Cc1ccccc1)N1C[C@H](CN)OCCC1=O [Compound 22, (2S)-2-(aminomethyl)-4-[(1R)-1-(1-benzyl-4-phenyl-1H-imidazol-2-yl)-2,2-dimethylpropyl]-1,4-oxazepan-5-one] | > 1 | 6.00 to 7.00 | > 1 |  | 
CC(C)(C)[C@H](c1nc(-c2ccccc2)cn1Cc1ccccc1)N1C[C@@H](F)CNCC1=O [Compound 32, (6S)-1-[(1R)-1-(1-benzyl-4-phenyl-1H-imidazol-2-yl)-2,2-dimethylpropyl]-6-fluoro-1,4-diazepan-2-one] | > 1 | 6.00 to 7.00 | > 1 |  | 
CN1C(=O)C(=O)N([C@@H](c2nc(-c3ccccc3)cn2Cc2ccccc2)C(C)(C)C)C[C@H]1CN [Compound 18, (5R)-5-(aminomethyl)-1-[(1R)-1-(1-benzyl-4-phenyl-1H-imidazol-2-yl)-2,2-dimethylpropyl]-4-methylpiperazine-2,3-dione] | > 1 | ≥ 7.00 | 0.1 to 1 | 0.1 to 1 | 0.1 to 1
CC(C)(C)[C@H](c1nc(-c2cccc(F)c2)cn1Cc1cc(F)cc(F)c1)N1C[C@@H](CN)COCC1=O [Compound 26, (6R)-6-(aminomethyl)-4-{(1R)-1-[1-(3,5-difluorobenzyl)-4-(3-fluorophenyl)-1H-imidazol-2-yl]-2,2-dimethylpropyl}-1,4-oxazepan-3-one] | 0.1 to 1 | ≥ 7.00 | 0.1 to 1 | 0.1 to 1 | 
CC(C)(C)[C@H](c1nc(-c2ccccc2)cn1Cc1ccccc1)N1C[C@@H](CO)NCCC1=O [Compound 19, (2S)-4-[(1R)-1-(1-benzyl-4-phenyl-1H-imidazol-2-yl)-2,2-dimethylpropyl]-2-(hydroxymethyl)-1,4-diazepan-5-one] | > 1 | 6.00 to 7.00 | > 1 |  | 
CC(C)(C)[C@H](c1nc(-c2ccccc2)cn1Cc1ccccc1)N1C[C@H](CN)COCC1=O [Compound 24, (6S)-6-(aminomethyl)-4-[(1R)-1-(1-benzyl-4-phenyl-1H-imidazol-2-yl)-2,2-dimethylpropyl]-1,4-oxazepan-3-one] | 0.1 to 1 | ≥ 7.00 | 0.1 to 1 |  | 
CC(C)(C)[C@H](c1nc(-c2ccccc2)cn1Cc1ccccc1)N1C[C@@H](CN)N(S(C)(=O)=O)CCC1=O [Compound 21, (2R)-2-(aminomethyl)-4-[(1R)-1-(1-benzyl-4-phenyl-1H-imidazol-2-yl)-2,2-dimethylpropyl]-1-(methylsulfonyl)-1,4-diazepan-5-one] | > 1 | ≥ 7.00 | ≤ 0.1 |  | 
CC(C)[C@H](c1nc(-c2cccc(Cl)c2)cn1Cc1ccccc1)N1C[C@H](CCN)OCC1=O [Compound 12, (6S)-6-(2-aminoethyl)-4-{(1R)-1-[1-benzyl-4-(3-chlorophenyl)-1H-imidazol-2-yl]-2-methylpropyl}morpholin-3-one] |  | < 6.00 |  |  | 
CC(C)(C)[C@H](c1nc(-c2ccccc2)cn1Cc1ccccc1)N1C[C@@H](CN)CNC(=O)C1=O [Compound 30, (6S)-6-(aminomethyl)-1-[(1R)-1-(1-benzyl-4-phenyl-1H-imidazol-2-yl)-2,2-dimethylpropyl]-1,4-diazepane-2,3-dione] |  | ≥ 7.00 |  |  | 
